Experimental data as given in PubChem BioAssay AID602211 (Sanford-Burnham Center for Chemical Genomics, 2012).
Activity calls are given as the source filed them.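 How the source made its calls: active means mean IC50 at or below 10 µM; inactive means the rest.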

These molecules were tested on H9c2 cardiomyocytes, H2O2 protection, ATPLite viability, 2 h (assay: H2O2-induced H9c2 cell death suppression – ATPLite luminescence, set 2, dose response (AID 602211);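 further: potency is for protection so actives keep ATP signal up against peroxide killing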).

SMILES	IC50
COc1ccc(-c2cc(C(=O)N(C)Cc3ccccc3F)c3ccccc3n2)cc1OC	> 79 µM (inactive)
COc1cc(NC(=O)c2ccco2)c(OC)cc1NC(=O)c1cc(OC)c(OC)c(OC)c1	11.3 µM (inactive)
COc1ccccc1OCC(=O)N/N=C/c1cccc2cccnc12	14.1 µM (inactive)
Cc1ccc(NC(=O)c2nc[nH]c2C(=O)NCCCNC(=O)c2[nH]cnc2C(=O)Nc2ccc(C)cc2)cc1	1.1 µM
CC1Nc2ncnc(N3CCN(c4ccccc4)CC3)c2N(Cc2ccc(Cl)cc2)C1=O (centres undefined)	5.41 µM
Cc1nc2c(c(=O)n1CCC1=CCCCC1)c1nc3ccccc3nc1n2/N=C/c1ccccc1	10.5 µM (inactive)
CCOc1cc(/C=C(\C#N)C(=O)Nc2ccc(S(N)(=O)=O)cc2)ccc1OCCN1CCOCC1	8.4 µM
COC(=O)c1ccc(OCC(=O)Nc2ccccc2C(=O)NC2CC2)cc1	22.6 µM (inactive)
Cc1nc2ccccc2c2c(N)c3ccccc3n12	14.6 µM (inactive)
CC(C)(C)OC(=O)N1CCC[C@H]1c1nnc(SCC(=O)Nc2ccc(Br)cc2)o1	5.87 µM
COc1cc(/C=C/c2nc3ccccc3c(=O)n2-c2ccc(O)cc2)ccc1O	3.01 µM
CCOC(=O)c1ccc(NC(=O)c2nc[nH]c2C(=O)NCCCCCNC(=O)OC(C)(C)C)cc1	4.43 µM
CCCCNC(=O)c1cn(-c2ccc(OCC)cc2)c(=O)c2cc(OC)c(OC)cc12	> 79 µM (inactive)
CN(CC1COc2ccccc2O1)c1nc(-c2cccnc2)nc2ccccc12 (centres undefined)	25.9 µM (inactive)
Cc1c(C(=O)Nc2ccc3nc(N4CCOCC4)sc3c2)oc2ccccc12	> 79 µM (inactive)
Cc1ccc(-c2nnc3ccc(SCC(=O)N4CCCc5ccccc54)nn23)cc1	> 79 µM (inactive)
O=C(N/N=C/c1ccc(-c2cccc([N+](=O)[O-])c2)o1)c1ccc([N+](=O)[O-])cc1	7 µM
COc1ccc(C(=O)Nc2cc(C)nn2-c2nc3ccccc3[nH]2)c(OC)c1	10.9 µM (inactive)
NC(=O)c1nsc(C(=O)N(c2ccccc2F)C(C(=O)NCc2ccccc2)c2ccc(O)cc2)c1N (centres undefined)	0.75 µM
COc1ccc(CSc2nc3ccccc3c(=O)[nH]2)cc1F	8.59 µM
COc1ccccc1OP(=O)(Nc1cccnc1)Oc1ccccc1OC	2.28 µM
O=C(CN1C(=O)C2C3C=CC(C3)C2C1=O)Nc1nc(-c2ccccn2)cs1 (centres undefined)	21.1 µM (inactive)
COc1ccc(Cl)cc1NC(=O)CCS(=O)(=O)c1cc2c(cc1C)NC(=O)CO2	8.29 µM
O=C1N[C@H](Cc2ccccc2)COC(=O)[C@@H](Cc2ccc(F)cc2)C/C=C\C[C@H]1CC(=O)N(CCO)Cc1ccccc1	> 79 µM (inactive)

SMILES	IC50
COc1cc(/C=N/NC(=O)c2cccnc2)ccc1OS(=O)(=O)c1ccc(F)cc1	3.17 µM
COC(=O)c1cc2ccccn2c2c(C(=O)OC)c(C(=O)OC)cc1-2	2.25 µM
CC(=O)c1cccc(-c2cnc3c(NC=O)cc(-c4cccc(C(=O)N(C)C)c4)cn23)c1	14.9 µM (inactive)
COCc1c(C(=O)Nc2ccc3nc(N4CCOCC4)sc3c2)oc2ccccc12	> 79 µM (inactive)
COc1ccc(-c2cc(C(=O)N(C)Cc3nc4ccccc4c(=O)[nH]3)c3ccccc3n2)cc1OC	1.71 µM
CCOC(=O)C1=C(C)NC(C)=C(C(=O)OCC)C1C(=O)OCC(=O)NC1CCCCC1	3.32 µM
COc1ccc(CCNC(=O)c2cc3c(C)nccc3[nH]c2=O)cc1OC	7.47 µM
CCOc1ccccc1NC(=O)c1oc2ccccc2c1NC(=O)C1CCCO1 (centres undefined)	4.13 µM
COc1ccc(C(=O)Nc2cccc(NC(=O)c3ccc(OC)c(OC)c3)n2)cc1OC	1.49 µM
Cc1ccc(CN(C(=O)CNC(=O)c2cccs2)C(C(=O)NCC2CCCO2)c2ccccc2)cc1 (centres undefined)	14.9 µM (inactive)
O=C(NCCN1CCOCC1)c1cnn2c(-c3ccccc3)cc(-c3ccccc3)nc12	> 79 µM (inactive)
COc1ccc2c(c1OC)C(=O)N1c3ccccc3C(=O)N(c3ccccc3)C21 (centres undefined)	6.9 µM
NC(=O)c1cccc(-c2coc3c(C(=O)NCCc4ccccc4)cccc23)c1	> 79 µM (inactive)
COc1cc(/C=C(\C#N)c2nc3ccc(C)cc3[nH]2)c([N+](=O)[O-])cc1OC	9.31 µM
CCOc1ccc2nc(NC(=O)CN3CCC(n4nnc5cc(F)ccc54)CC3)sc2c1	2.37 µM
CCOC(=O)C1CCN(c2cc3c(cc2NC(=O)c2ccc(F)cc2)n(C)c(=O)n3C)CC1	25.8 µM (inactive)
NC(=O)c1oc2ccccc2c1NC(=O)c1ccco1	21.4 µM (inactive)
COc1ccc(-c2cc(C(=O)NNC(=O)c3csc(N4CCOCC4)n3)c3ccccc3n2)cc1	14.1 µM (inactive)
CCCNC(=O)c1ccc(N2CCC3(CC2)CC(c2ccccc2)=NO3)c(NC(=O)c2ccco2)c1	4.21 µM
CCOC(=O)C1CCN(C(=O)c2ccc3c(=O)n4nc(Nc5ccccc5OC)sc4nc3c2)CC1	6.31 µM
COC(=O)c1ccc(N)c(N=CC2=C(O)CC(C)(C)CC2=O)c1	7.63 µM
CC(C)(C)OC(=O)NCC12C=CC(O1)C1C(=O)N(Cc3ccccc3)C(=O)C12 (centres undefined)	2.91 µM
COC(=O)c1[nH]c2ccccc2c1NC(=O)CNC1CCCCC1	8.49 µM
O=C(COC(=O)c1cc(-c2cccnc2)nc2ccccc12)Nc1ccc(F)cc1F	17.8 µM (inactive)

SMILES	IC50
COc1ccc(C=CC(=O)c2ccc3cc(OC)c(OC)cc3c2)cc1OC	2.47 µM
O=C(CN1CCN(Cc2ccccc2)CC1)Nc1ccc([N+](=O)[O-])cc1C(=O)Nc1ccccc1F	4.75 µM
CCOc1ccc2[nH]c(=O)c(CN(Cc3nnnn3Cc3ccco3)C3CCCCC3)cc2c1	> 79 µM (inactive)
O=C(NCCN1CCN(c2ccccc2F)CC1)c1cccn2c(=O)c3ccccc3nc12	7.34 µM
CC(=O)c1cccc(-c2cnc3c(NC=O)cc(-c4ccccc4F)cn23)c1	7.66 µM
O=C(N/N=C/c1ccccn1)c1[nH]c2ccc([N+](=O)[O-])cc2c1-c1ccccc1	2.33 µM
COCCCNC(=O)/C(C#N)=C1\N=C(NC(=O)c2cccs2)c2ccccc21	> 79 µM (inactive)
Cn1nc(C(=O)Nc2nc(-c3ccccn3)cs2)c2ccccc2c1=O	6.13 µM
CN(C)C(=O)/C=C\c1cn(-c2ccccc2)nc1-c1ccc2c(c1)OCCO2	> 79 µM (inactive)
COCCNC(=O)COC(=O)c1ccc(OCC(=O)Nc2ccccc2OC)c(OC)c1	20.4 µM (inactive)
CNC(=O)COC(=O)/C=C/c1cn(-c2ccccc2)nc1-c1ccc(C)o1	6.31 µM
CCOc1ccc(C(C(=O)NCC2CCCO2)N(C(=O)c2snc(C(N)=O)c2N)c2ccccc2F)cc1 (centres undefined)	3.67 µM
O=C(Nc1ccccc1)c1nc[nH]c1C(=O)NCCCCNC(=O)c1[nH]cnc1C(=O)Nc1ccccc1	2.04 µM
COc1ccc2o/c(=N/NC(=O)c3cccs3)c(C(N)=O)cc2c1	2.29 µM
COc1cc(C(=O)NCC(=O)N/N=C/c2ccc(-c3cccc([N+](=O)[O-])c3)o2)cc(OC)c1OC	9.76 µM
COc1ccc(OC)c(N(CC(=O)Nc2cccnc2)S(=O)(=O)c2ccc(OC)c(OC)c2)c1	16.5 µM (inactive)
COc1cc(CN2C[C@@H](CO)O[C@@H](n3cnc4c(Nc5ccccc5)ncnc43)C2)cc(OC)c1OC	10.6 µM (inactive)
O=C(N/N=C/c1cn(-c2ccccc2)nc1-c1cccnc1)c1ccccc1	12.7 µM (inactive)
Cc1cc(NC(=O)C2CCCCC2)nc2c1c(=O)oc1ccccc12	23.7 µM (inactive)
COc1ccccc1NC(=O)COc1ccc(/C=N/NC(=O)c2cccnc2)cc1	9.9 µM
CCOC(=O)N1CCN(C(=O)CSc2nc3c(cnn3-c3ccc(C)cc3)c(=O)[nH]2)CC1	2.14 µM
COc1cc(-c2cnc3c(NC=O)cc(-c4ccsc4)cn23)cc(OC)c1OC	> 79 µM (inactive)
NS(=O)(=O)c1ccc(N=Cc2c(O)n(-c3nccs3)c(=O)c3ccccc23)cc1	4.2 µM
CSc1nc2ccc(S(=O)(=O)Nc3c(C)n(C)n(-c4ccccc4)c3=O)cc2s1	3.1 µM

SMILES	IC50
Cc1ccc(Cn2c(CCNc3nc(-c4ccc(Cl)c([N+](=O)[O-])c4)cs3)nc3cc(C(=O)NCCCO)ccc32)cc1	1.48 µM
COc1ccc(/C=N/NC(=O)c2cc(-c3ccc4c(c3)OCO4)n[nH]2)cc1OC	7.49 µM
CC(=O)c1ccc(N2CCN(C(=O)c3cc(-c4cccnc4)nc4ccc(Br)cc34)CC2)cc1	3.78 µM
N#C/C(=C\c1ccc(-c2cccc([N+](=O)[O-])c2)o1)C(=O)NCCN1CCOCC1	> 79 µM (inactive)
C=CC[C@@H](CC(=O)NCCO)C(=O)NC[C@H](OC(=O)[C@@H](CC=C)Cc1ccc(F)cc1)c1ccccc1	3.38 µM
COc1ccc(CCn2c(=N)c(C(=O)NCC3CCCO3)cc3c(=O)n4cccc(C)c4nc32)cc1OC (centres undefined)	2.6 µM
O=C(N/N=C/c1ccccn1)c1ccc(NC(=O)c2cccc([N+](=O)[O-])c2)cc1	7.34 µM
COc1ccc(-c2csc(NC(=O)c3cccc(N4C(=O)CCC4=O)c3)n2)cc1OC	5 µM
Cc1cccc(NC(=O)c2cc(-c3ccco3)nc3ccccc23)n1	8.15 µM
CC12CCC3C(CCC4CC(O)CCC43C)C1CC(O)C2 (centres undefined)	3.41 µM
Cc1nnc2ccc(-c3cccc(NC(=O)c4ccc(Cl)nc4)c3)nn12	2.62 µM
Nc1c(C(=O)NC2CC2)c2nc3ccccc3nc2n1-c1ccc2c(c1)OCO2	4.49 µM
NS(=O)(=O)c1ccc(CCNc2ccn3nc(-c4ccc(OCCN5CCOCC5)cc4)cc3n2)cc1	7.72 µM
CC(=O)Nc1cccc(-c2cc(NC(C)=O)c3ncc(-c4ccccc4)n3c2)c1	13.7 µM (inactive)
C[C@H](CO)N1C[C@H](C)[C@@H](CN(C)S(=O)(=O)c2ccc(F)cc2)Oc2ccc(NC(=O)Nc3ccc4c(c3)OCO4)cc2C1=O	10.1 µM (inactive)
COc1cccc(-c2cnc3c(NC=O)cc(-c4cccc(C(=O)N(C)C)c4)cn23)c1	12.6 µM (inactive)
O=C(c1cc(=O)[nH]c2ccccc12)N1CCN(S(=O)(=O)c2ccc(Cl)cc2)CC1	1.1 µM
COc1ccc(-c2nn(-c3ccccc3)cc2C(=O)Nc2nccs2)cc1	8.75 µM
COc1ccc(-c2cc3nc(C)cc(N4CCN(C(=O)c5ccoc5)CC4)n3n2)cc1	69.1 µM (inactive)
COc1ccc(C=NNc2nc3c([nH]2)c(=O)n(C)c(=O)n3C)cc1	5.8 µM
CCOc1ccc(S(=O)(=O)N(C)CCO)cc1-c1nc2c(C(C)(C)C)nn(C)c2c(=O)[nH]1	5.22 µM
COc1cc(-c2nnc(-c3cc(-c4ccccc4)nc4ccccc34)o2)cc(OC)c1OC	4.14 µM
